Measured values published in patent US12441768B2, “Compositions and methods for treating endometriosis” (EndoMet Biosciences, Inc., priority 2018, dated 2025).
Like-named read-outs stand apart in the source and are kept apart here. Where a SMILES comes first, the peptide text is derived from it.

Biological target: T1, β-catenin (Homo sapiens, UniProt P35222)
T1 sequence (P35222 1-781): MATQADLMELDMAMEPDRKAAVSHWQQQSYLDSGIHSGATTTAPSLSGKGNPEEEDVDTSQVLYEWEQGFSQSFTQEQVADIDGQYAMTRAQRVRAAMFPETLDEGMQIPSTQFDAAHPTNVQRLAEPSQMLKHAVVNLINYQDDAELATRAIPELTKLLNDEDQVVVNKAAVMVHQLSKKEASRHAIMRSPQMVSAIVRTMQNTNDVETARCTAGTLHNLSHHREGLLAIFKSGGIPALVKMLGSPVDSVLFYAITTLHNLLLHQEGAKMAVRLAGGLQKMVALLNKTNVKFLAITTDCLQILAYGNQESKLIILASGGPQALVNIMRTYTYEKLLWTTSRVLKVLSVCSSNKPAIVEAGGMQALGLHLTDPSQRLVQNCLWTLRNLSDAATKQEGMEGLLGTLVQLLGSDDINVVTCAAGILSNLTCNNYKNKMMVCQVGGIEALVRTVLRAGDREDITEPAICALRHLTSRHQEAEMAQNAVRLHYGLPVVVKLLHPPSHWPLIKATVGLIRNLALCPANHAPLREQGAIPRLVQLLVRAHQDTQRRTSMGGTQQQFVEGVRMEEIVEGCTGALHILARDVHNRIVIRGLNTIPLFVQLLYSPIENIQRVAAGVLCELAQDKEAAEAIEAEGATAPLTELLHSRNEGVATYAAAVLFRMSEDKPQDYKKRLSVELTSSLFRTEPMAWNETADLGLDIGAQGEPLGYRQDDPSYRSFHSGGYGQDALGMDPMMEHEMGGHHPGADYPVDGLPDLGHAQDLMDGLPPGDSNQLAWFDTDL
Assay: KD50 measurement using competitive fluorescence polarization (FP) with labelled TCF4
Type: binding
Conditions: fluorescence polarization, β-catenin
Procedure, shortened: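 Labelled TCF4 (5 nM) mixed with 100 nM β-catenin at room temperature; inhibitor added as serial dilutions from 10 nM to 30 uM. Polarization read at excitation 470 nm/emission 520 nm; binding displacement lowers polarization. Three independent runs.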

Structure (SMILES) | Kd (read-out: β-Cat FP KD) | β-Cat FP Hill slope | Kd (β-Cat FP KD)
CC[C@H](C)[C@@H]1NC(=O)[C@@H](NC(=O)[C@H](CCC(N)=O)NC(=O)[C@H](C)N(C)C(=O)[C@@H](N)Cc2c[nH]c3ccccc23)CCCCNC(=O)CC[C@@H](C(=O)N[C@@H](Cc2c[nH]cn2)C(=O)N[C@H](C(=O)N[C@@H](CCC(N)=O)C(=O)N[C@@H](CCCNC(=N)N)C(=O)N[C@H](C(=O)N[C@@H](Cc2c[nH]c3ccccc23)C(=O)NCC(N)=O)C(C)C)C(C)C)NC(=O)[C@H](CC(=O)O)NC(=O)[C@H](CC2CCCCC2)NC1=O [compound 406] (HELM PEPTIDE1{W.[meA].Q.K.I.[Cha].D.E.H.V.Q.R.V.W.G.[am]}$PEPTIDE1,PEPTIDE1,4:R3-8:R3$$$V2.0) | > 30 µM |  | 
CC[C@H](C)[C@@H]1NC(=O)[C@@H](NC(=O)[C@H](CCC(N)=O)NC(=O)[C@H](C)N(C)C(=O)[C@H](Cc2c[nH]c3ccccc23)NC(=O)COc2ccccc2)CCCCNC(=O)CC[C@@H](C(=O)N[C@@H](Cc2c[nH]cn2)C(=O)N[C@H](C(=O)N[C@@H](CCC(N)=O)C(=O)N[C@@H](CCCNC(=N)N)C(=O)N[C@H](C(=O)N[C@@H](Cc2c[nH]c3ccccc23)C(=O)NCC(N)=O)C(C)C)C(C)C)NC(=O)[C@H](CC(=O)O)NC(=O)[C@H](CC2CCCCC2)NC1=O [compound 408] (HELM PEPTIDE1{[O=C(COc1ccccc1)[*:2]].W.[meA].Q.K.I.[Cha].D.E.H.V.Q.R.V.W.G.[am]}$PEPTIDE1,PEPTIDE1,5:R3-9:R3$$$V2.0) |  |  | > 30 µM
CC[C@H](C)[C@@H]1NC(=O)[C@@H](NC(=O)[C@H](CCC(N)=O)NC(=O)[C@H](C)N(C)C(=O)[C@H](Cc2c[nH]c3ccccc23)NC(C)=O)CCCCNC(=O)CC[C@@H](C(=O)N[C@@H](Cc2c[nH]cn2)C(=O)N[C@H](C(=O)NC(C)(C)C(=O)N[C@@H](CCCNC(=N)N)C(=O)N[C@H](C(=O)N[C@@H](Cc2c[nH]c3ccccc23)C(=O)NCC(N)=O)C(C)C)C2CCCCC2)NC(=O)[C@H](CC(=O)O)NC(=O)[C@H](CC(C)C)NC1=O [compound 414] (HELM PEPTIDE1{[ac].W.[meA].Q.K.I.L.D.E.H.[O=C([C@@H](N[*:1])C1CCCCC1)[*:2]].[Aib].R.V.W.G.[am]}$PEPTIDE1,PEPTIDE1,5:R3-9:R3$$$V2.0) | < 0.4 µM | 0.7 | 

Continued, in another order:

Kd (read-out: β-Cat FP KD) | β-Cat FP Hill slope | Structure (SMILES) | Kd (β-Cat FP KD)
> 30 µM |  | CC[C@H](C)[C@@H]1NC(=O)[C@@H](NC(=O)[C@H](CCC(N)=O)NC(=O)[C@H](C)N(C)C(=O)[C@H](Cc2c[nH]c3ccccc23)NC(C)=O)CCCCNC(=O)CC[C@@H](C(=O)N[C@@H](Cc2c[nH]cn2)C(=O)N[C@H](C(=O)N[C@@H](CCC(N)=O)C(=O)N[C@@H](CCCNC(=N)N)C(=O)N[C@H](C(=O)N[C@@H](Cc2c[nH]c3ccccc23)C(=O)NCC(N)=O)C(C)C)C(C)C)NC(=O)[C@H](CC(=O)O)NC(=O)[C@H](CC2CCCCC2)NC1=O [compound 407] (HELM PEPTIDE1{[ac].W.[meA].Q.K.I.[Cha].D.E.H.V.Q.R.V.W.G.[am]}$PEPTIDE1,PEPTIDE1,5:R3-9:R3$$$V2.0) | 
1 to 10 µM | 0.7 | CC[C@H](C)[C@H](NC(=O)[C@H](CO)NC(=O)[C@H](CCC(=O)O)NC(=O)[C@@H]1CCCN1C(=O)[C@H](CC(C)C)NC(=O)[C@H](CCCNC(=N)N)NC(=O)CCNC(C)=O)C(=O)N[C@@H](CC(C)C)C(=O)N[C@@H](CC(=O)O)C(=O)N[C@@H](CCC(=O)O)C(=O)N[C@@H](Cc1c[nH]cn1)C(=O)N[C@@H](Cc1c[nH]c2ccccc12)C(=O)N[C@@H](CCC(N)=O)C(=O)N[C@@H](CCCNC(=N)N)C(=O)N[C@H](C(=O)N[C@@H](Cc1c[nH]c2ccccc12)C(=O)N1CCC[C@H]1C(N)=O)C(C)C [compound 411] (HELM PEPTIDE1{[ac].[bAla].R.L.P.E.S.I.L.D.E.H.W.Q.R.V.W.P.[am]}$$$$V2.0) | 
